Laboratory results from US20190284162A1, “USE OF A DIFLUORO-(2-HYDROXYPROPYL)PYRIDINE COMPOUND AS A FUNGICIDE FOR CONTROL OF PHYTOPATHOGENIC FUNGI OF CORN” (Dow AgroSciences LLC, priority 2016, published 2019).

Legend:
Format in all cases: in vivo
Phaeosphaeria maydis = experiment: Field assessment of Phaeosphaeria maydis (PHSPMA), phaeosphaeria leaf spot, in corn
Description: Field Assessment of Phaeosphaeria maydis (PHSPMA) in Corn:
(§1) A fungicidal treatment containing Compound I, applied alone in an EC formulation at 100 grams of active ingredient per hectare (g ai/ha) and tank mixed with an adjuvant (Agnique BP-420, 50% w/w at 0.3% v/v), was sprayed on corn plants (ZEAMX, P30R50 variety) twice at the growth stages 18 (8 leaves unfolded, application A) and 39 (stem elongation; prior to tassle emergence, application B) at rates of 25, 50, 100, 125 and 150 g ai/ha. The experimental plots were inoculated with phaeosphaeria leaf spot 24 hr after each application. The treatment was part of an experimental trial designed as a randomized complete block with four replications and a plot of approximately 1×3 m. Compound I was applied at water volume of 200 L/ha, using a backpack precision plot sprayer (BKPCKAIR, 2 and 3 m band width, Flat Fan XR110.015 Nozzle) and pressurized at 45 psi.
(§2) Disease severity (percentage of visual diseased foliage on whole plot) was assessed six times (15-49 days after application B, DAAB). The disease infection was recorded following EPPO PP1/26 guideline prescriptions. Area under the disease progress curve (AUDPC) was calculated for each plot using the sets of recorded severity data. Relative AUDPC (% control based on AUDPC) was calculated as percent of the nontreated control.

Puccinia polysora = experiment: Field assessment of Puccinia polysora (PUCCPY), brown rust, in corn
Description: Field Assessment of Puccinia polysora (PUCCPY) in Corn:
as §1, with “brown rust” for “phaeosphaeria leaf spot”
as §2

Cercospora zeae-maydis = experiment: Field assessment of Cercospora zeae-maydis (CERCZM), grey leaf spot, in corn
Description: Field Assessment of Cercospora zeae-Maydis (CERCZM) in Corn:
as §1, with “Formula” for “P30R50”, “grey” for “phaeosphaeria”
as §2

Exserohilum turcicum = experiment: Field assessment of Exserohilum turcicum (SETOTU) in corn
Description: Field Assessment of Exserohilum turcicum (SETOTU) in Corn: A fungicidal treatment containing Compound I, tank mixed with an adjuvant (Agnique BP-420, 50% w/w at 0.3% v/v), was sprayed on corn plants once at the growth stage 51 (beginning tassel emergence) at rates of 50, 75, 100, and 150 g ai/ha. The treatment was part of an experimental trial designed as a randomized complete block with four replications. Compound I was applied at water volume of 140 L/ha, using a backpack precision plot sprayer. Disease severity was assessed as combined percent visual necrosis on leaves ear-1, ear and ear+1. Severity was assessed twice at 24 DAA1 (days after application 1) and 32 DAA1.

[1] = 25 g ai/ha, with adjuvant Agnique BP-420, two applications
[2] = 50 g ai/ha, with adjuvant Agnique BP-420, two applications
[3] = 100 g ai/ha, with adjuvant Agnique BP-420, two applications
[4] = 100 g ai/ha, without adjuvant, two applications
[5] = 125 g ai/ha, with adjuvant Agnique BP-420, two applications
[6] = 150 g ai/ha, with adjuvant Agnique BP-420, two applications

SMILES: N#Cc1ccc(Oc2ccc(C(F)(F)C(O)(Cn3ncnc3S)c3ccc(F)cc3F)nc2)cc1 (centres unmarked) [Compound I, 4-((6-(2-(2,4-difluorophenyl)-1,1-difluoro-2-hydroxy-3-(5-mercapto-1H-1,2,4-triazol-1-yl)propyl)pyridin-3-yl)oxy)benzonitrile]
- Disease (% Control) PHSPMA, based on AUDPC (Phaeosphaeria maydis; [1]): B (51-75)
- Disease (% Control) PHSPMA, based on AUDPC (Phaeosphaeria maydis; [2]): B (51-75)
- Disease (% Control) PHSPMA, based on AUDPC (Phaeosphaeria maydis; [3]): A (76-100)
- Disease (% Control) PHSPMA, based on AUDPC (Phaeosphaeria maydis; [4]): B (51-75)
- Disease (% Control) PHSPMA, based on AUDPC (Phaeosphaeria maydis; [5]): A (76-100)
- Disease (% Control) PHSPMA, based on AUDPC (Phaeosphaeria maydis; [6]): A (76-100)
- Disease (% Control) PUCCPY, based on AUDPC (Puccinia polysora; [1]): A (76-100)
- Disease (% Control) PUCCPY, based on AUDPC (Puccinia polysora; [2]): A (76-100)
- Disease (% Control) PUCCPY, based on AUDPC (Puccinia polysora; [3]): A (76-100)
- Disease (% Control) PUCCPY, based on AUDPC (Puccinia polysora; [4]): A (76-100)
- Disease (% Control) PUCCPY, based on AUDPC (Puccinia polysora; [5]): A (76-100)
- Disease (% Control) PUCCPY, based on AUDPC (Puccinia polysora; [6]): A (76-100)
- Disease (% Control) CERCZM, based on AUDPC (Cercospora zeae-maydis; [1]): B (51-75)
- Disease (% Control) CERCZM, based on AUDPC (Cercospora zeae-maydis; [2]): B (51-75)
- Disease (% Control) CERCZM, based on AUDPC (Cercospora zeae-maydis; [3]): B (51-75)
- Disease (% Control) CERCZM, based on AUDPC (Cercospora zeae-maydis; [4]): C (26-50)
- Disease (% Control) CERCZM, based on AUDPC (Cercospora zeae-maydis; [5]): A (76-100)
- Disease (% Control) CERCZM, based on AUDPC (Cercospora zeae-maydis; [6]): A (76-100)
- Disease severity: combined visual necrosis on leaves ear-1, ear and ear+1 (Exserohilum turcicum; 50 g ai/ha, 24 DAA1, tank mixed with Agnique BP-420, untreated control 36.1): 46.5%
- Disease severity: combined visual necrosis on leaves ear-1, ear and ear+1 (Exserohilum turcicum; 50 g ai/ha, 32 DAA1, tank mixed with Agnique BP-420, untreated control 50.4): 45.5%
- Disease severity: combined visual necrosis on leaves ear-1, ear and ear+1 (Exserohilum turcicum; 75 g ai/ha, 24 DAA1, tank mixed with Agnique BP-420, untreated control 36.1): 45.0%
- Disease severity: combined visual necrosis on leaves ear-1, ear and ear+1 (Exserohilum turcicum; 75 g ai/ha, 32 DAA1, tank mixed with Agnique BP-420, untreated control 50.4): 44.2%
- Disease severity: combined visual necrosis on leaves ear-1, ear and ear+1 (Exserohilum turcicum; 100 g ai/ha, 24 DAA1, tank mixed with Agnique BP-420, untreated control 36.1): 37.2%
- Disease severity: combined visual necrosis on leaves ear-1, ear and ear+1 (Exserohilum turcicum; 100 g ai/ha, 32 DAA1, tank mixed with Agnique BP-420, untreated control 50.4): 31.6%
- Disease severity: combined visual necrosis on leaves ear-1, ear and ear+1 (Exserohilum turcicum; 150 g ai/ha, 24 DAA1, tank mixed with Agnique BP-420, untreated control 36.1): 37.9%
- Disease severity: combined visual necrosis on leaves ear-1, ear and ear+1 (Exserohilum turcicum; 150 g ai/ha, 32 DAA1, tank mixed with Agnique BP-420, untreated control 50.4): 33.3%
